These results are taken from patent US10618914B2 (UNIVERSITY OF PITTSBURGH—OF THE COMMONWEALTH SYSTEM OF …, priority 2015, dated 2020).

Like-named read-outs stand apart in the source and are kept apart here.

As usually defined, the IC50 is the midpoint of a concentration-inhibition curve. The GI50 is the concentration that inhibits growth by half.

Type in all cases: cell-based
In assay [1] the test system is STAT1. In words: STAT1 assay (selectivity counter-screen). On the technique in general: The purpose of a counterscreen is to sort out artefacts and off-target activity.
Assay [2] has as its system HNSCC cell lines 686LN, FADU, CAL33, OSC19. In words: Growth inhibition on HNSCC cell line panel. Conditions: range over cell lines 686LN.
In assay [3] the test system is STAT3. In words: HCS STAT3 assay. Conditions: read-out: STAT3 IC50 (converted).
Assay [4] relates to Cal33 cells. Description: Cal33 growth inhibition.
For assay [5], the system named is FADU. In words: Growth inhibition on HNSCC cell line FADU. Conditions: average of 2 experiments.
The test system of assay [6] is OSC19. Description: Growth inhibition on HNSCC cell line OSC19. Conditions: average of 2 experiments; read-out: 0SC19 GI50.
Assay [7] concerns 686LN. Description: Growth inhibition on HNSCC cell line 686LN. Conditions: average of 2 experiments.
The mark [8] stands for this setting: Table 5, * average of 2 experiments.
Where [9] appears, read: Table 6, average of 2 experiments.

On to `Clc1ccc(C2=Nn3c(nnc3-c3[nH]nc4c3CCC4)SC2)cc1Cl` [1a], for which the IC50 was over 50 µM in assay [1] (Table 4) and 6.8 ± 3.7 µM in assay [3] (Table 4). The 50% growth inhibitory concentration (GI50) in assay [2] fell in the range of 14 to 26 µM.
In the same order, the values of `Clc1ccc(C2=Nn3c(nnc3-c3cc(-c4ccccc4)n[nH]3)SC2)cc1` [2b] are over 50 µM, 9.6 µM and 27 to 44 µM.
Molecule `CC1Sc2nnc(-c3[nH]nc4c3CCC4)n2N=C1c1ccc(Cl)c(Cl)c1` (centres unmarked) [Cmpd 19] gave a GI50 in assay [4] (setting [8]) of 1.9 ± 1.2 µM. Moreover, the results for the half-maximal inhibitory concentration (IC50) in assay [1] (setting [8]) and in assay [3] (setting [8]) were over 50 µM and 8.2 ± 2.2 µM, respectively.
For the molecule `COc1ccc(C2=Nn3c(nnc3-c3[nH]nc4c3CCC4)SC2C)cc1` (centres unmarked) [Cmpd 20], in assay [4] (setting [8]), it took 0.2 µM to inhibit growth by half (GI50). For the same molecule, the IC50 was over 50 µM in assay [1] (setting [8]) and 9.1 µM in assay [3] (setting [8]).
In the same order, the values of `CC1Sc2nnc(-c3cc(-c4ccccc4)n[nH]3)n2N=C1c1ccccc1` (centres unmarked) [Cmpd 21] are 34.1 ± 8.7 µM, 15 µM and 3.4 µM.
In the same order, the values of `CC1Sc2nnc(-c3cc(-c4ccc(F)cc4)n[nH]3)n2N=C1c1ccccc1` (centres unmarked) [Cmpd 22] are 36.3 ± 9.7 µM, over 30 µM and 3.8 ± 0.8 µM.
In the same order, the values of `COc1ccc(C2=Nn3c(nnc3-c3cc(-c4ccc(F)cc4)n[nH]3)SC2C)cc1` (centres unmarked) [Cmpd 23] are 29.5 ± 6.5 µM, over 30 µM and 4.2 µM.
`CC(C)C1Sc2nnc(-c3[nH]nc4c3CCC4)n2N=C1c1ccc(Cl)c(Cl)c1` (centres unmarked) [Cmpd 25] had a concentration for 50% growth inhibition (GI50) in assay [4] (setting [8]) of 8.2 µM. For the same molecule, the IC50 was over 50 µM in assay [1] (setting [8]) and 4.4 µM in assay [3] (setting [8]).
The matching figures for `CCC(C)C1Sc2nnc(-c3[nH]nc4c3CCC4)n2N=C1c1ccc(OC)cc1` (centres unmarked) [Cmpd 27]: 3.5 ± 1.5 µM, over 50 µM and 4.1 µM.
The molecule `CCCCC1Sc2nnc(-c3[nH]nc4c3CCC4)n2N=C1c1ccc(Cl)c(Cl)c1` (centres unmarked) [Cmpd 29] registered a concentration for 50% growth inhibition (GI50) in assay [4] (setting [8]) of 3.3 µM. For the same molecule, the half-inhibitory concentration (IC50) in assay [1] (setting [8]) was over 50 µM; in assay [3] (setting [8]) it was 7.5 µM.
In the same order, the values of `CC1(C)Sc2nnc(-c3[nH]nc4c3CCC4)n2N=C1c1ccc(Cl)c(Cl)c1` [Cmpd 32] are over 50 µM, over 50 µM and 18.6 µM.
Consider `COc1ccc(C2=Nn3c(nnc3-c3[nH]nc4c3CCC4)SC2C)cc1` (centres unmarked) [compound 20], for which the GI50 came out at 0.18 µM in assay [4] (setting [9]), 1.3 µM in assay [5], 3.1 µM in assay [6] and 0.88 µM in assay [7].
The matching figures for `COc1ccc(C2=Nn3c(nnc3-c3cc(-c4ccc(Cl)cc4)n[nH]3)SC2C)cc1` (centres unmarked) [compound 24]: 2.2 µM, 8.4 µM, 14.9 µM and 17.4 µM.
